“And” between values parts separate entries of the source, which are not always exact repeats. Identical values can stand only once. Inconclusive results and toxic doses are left out.

The test system of this experiment is CD2F1 mice, L1210 leukemia ip, survival T/C. The experiment is described as follows: NCI In Vivo Anticancer Drug Screen. Data for tumor model L1210 Leukemia (intraperitoneal) in CD2F1 (CDF1) mice. The settings on record: endpoint: mean survival time, higher = longer survival. An outline of the steps:
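Tumor-bearing mice (transplanted tumor) were split into treated and vehicle control groups, and the measured endpoint of each treated group was divided by that of its vehicle controls.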

Where [1] appears, read: dose: 100.0 mg/kg/injection, schedule: Q01DX009 (ip), vehicle: saline with Tween-80.
The mark [2] stands for this setting: dose: 100.0 mg/kg/injection, schedule: Q04DX003 (ip), vehicle: saline with Tween-80.
[3] abbreviates: dose: 200.0 mg/kg/injection, schedule: Q01DX009 (ip), vehicle: saline with Tween-80.
Setting [4] is: dose: 200.0 mg/kg/injection, schedule: Q04DX003 (ip), vehicle: saline with Tween-80.
[5] abbreviates: dose: 400.0 mg/kg/injection, schedule: Q01DX009 (ip), vehicle: saline with Tween-80.
Where [6] appears, read: dose: 400.0 mg/kg/injection, schedule: Q04DX003 (ip), vehicle: saline with Tween-80.
The mark [7] stands for this setting: dose: 6.25 mg/kg/injection, schedule: Q01DX009 (ip), vehicle: saline.
Where [8] appears, read: dose: 100.0 mg/kg/injection, schedule: Q04DX002 (ip), vehicle: saline with Tween-80.
[9] abbreviates: dose: 200.0 mg/kg/injection, schedule: Q04DX002 (ip), vehicle: saline with Tween-80.
Setting [10] is: dose: 400.0 mg/kg/injection, schedule: Q04DX002 (ip), vehicle: saline with Tween-80.
Setting [11] is: dose: 100.0 mg/kg/injection, schedule: Q04DX003 (ip), vehicle: saline.
The mark [12] stands for this setting: dose: 200.0 mg/kg/injection, schedule: Q04DX003 (ip), vehicle: saline.
Where [13] appears, read: dose: 400.0 mg/kg/injection, schedule: Q04DX003 (ip), vehicle: saline.
[14] abbreviates: dose: 12.5 mg/kg/injection, schedule: Q01DX009 (ip), vehicle: saline with Tween-80.
Where [15] appears, read: dose: 25.0 mg/kg/injection, schedule: Q01DX009 (ip), vehicle: saline with Tween-80.
Setting [16] is: dose: 50.0 mg/kg/injection, schedule: Q01DX009 (ip), vehicle: saline with Tween-80.

As for `Cc1ccc(S(=O)(=O)N(C)N=O)cc1`, the T/C is, setting by setting: under setting [1], 89 % of control; under setting [2], 97 % of control; under setting [3], 106 % of control; under setting [4], 102 % of control; under setting [5], 102 % of control; under setting [6], 107 % of control.
As for `CCN(CCO)c1ccc(N)cc1C`, the T/C reads like this: (dose: 1.56 mg/kg/injection, schedule: Q01DX009 (ip), vehicle: saline) 100 % of control; (dose: 1.56 mg/kg/injection, schedule: Q04DX003 (ip), vehicle: saline) 101 % of control; (dose: 3.13 mg/kg/injection, schedule: Q01DX009 (ip), vehicle: saline) 100 % of control; (dose: 3.13 mg/kg/injection, schedule: Q04DX003 (ip), vehicle: saline) 104 % of control; under setting [7], 101 % of control; (dose: 6.25 mg/kg/injection, schedule: Q04DX003 (ip), vehicle: saline) 97 % of control.
As to `COc1ccc(Cl)cc1C(c1cc(Cl)ccc1OC)C(Cl)(Cl)Cl`, the T/C reads like this: under setting [1], 97 % of control; under setting [2], 103 % of control; under setting [3], 109 % of control; under setting [4], 103 % of control; under setting [5], 104 % of control; under setting [6], 101 % of control.
With `COc1ccc(OC)c(NC(=S)NC(=O)COc2ccccc2)c1`, the T/C was 87 % of control (dose: 100.0 mg/kg/injection, schedule: Q01DX001 (ip), vehicle: saline with Tween-80); 94 % of control and 97 % of control under setting [1]; 98 % of control under setting [8]; 87 % of control (dose: 200.0 mg/kg/injection, schedule: Q01DX001 (ip), vehicle: saline with Tween-80); 88 % of control and 93 % of control under setting [3]; 102 % of control under setting [9]. The T/C runs as follows: (dose: 400.0 mg/kg/injection, schedule: Q01DX001 (ip), vehicle: saline with Tween-80) 89 % of control; under setting [5], 102 % of control and 104 % of control; under setting [10], 109 % of control.
Take `CC1CC(C)(C)CC2CC(C(=O)O)(C(=O)O)CC12` (stereo unspecified): the T/C by setting is: (dose: 100.0 mg/kg/injection, schedule: Q04DX003 (ip), vehicle: saline sonified) 102 % of control; (dose: 200.0 mg/kg/injection, schedule: Q04DX003 (ip), vehicle: saline sonified) 96 % of control; (dose: 400.0 mg/kg/injection, schedule: Q04DX003 (ip), vehicle: saline sonified) 100 % of control.
For `COC1=CC=C2[C@@H]3Cc4ccc(OC)c5c4[C@]2(CCN3CCCl)C1O5` (stereo partly specified), the T/C was 107 % of control (dose: 25.0 mg/kg/injection, schedule: Q04DX003 (ip), vehicle: DMSO); 104 % of control (dose: 50.0 mg/kg/injection, schedule: Q04DX003 (ip), vehicle: DMSO); 102 % of control (dose: 100.0 mg/kg/injection, schedule: Q04DX003 (ip), vehicle: DMSO).
In the case of `O=C([O][Sb]([O]C(=O)C(Cl)Cl)([c]1ccccc1)([c]1ccccc1)[c]1ccccc1)C(Cl)Cl`, the T/C under setting [2] is 92 % of control and the T/C under setting [4] was 88 % of control.
As to `CN(C)CC(C)(C)C(=O)c1ccc(Cl)cc1`, the T/C was 93 % of control (dose: 100.0 mg/kg/injection, schedule: Q04DX002 (ip), vehicle: saline) and 89 % of control (dose: 200.0 mg/kg/injection, schedule: Q04DX002 (ip), vehicle: saline).
For the compound `CCOC(=O)C(N)CSCc1ccccc1` (stereo unspecified), the T/C was 103 % of control under setting [11], 97 % of control under setting [12] and 101 % of control under setting [13].
Consider `CCC(C)(CC)OC(=O)c1ccc([N+](=O)[O-])cc1`, for which the T/C was 100 % of control (dose: 100.0 mg/kg/injection, schedule: Q01DX001 (ip), vehicle: saline); 98 % of control (dose: 200.0 mg/kg/injection, schedule: Q01DX001 (ip), vehicle: saline); 98 % of control (dose: 400.0 mg/kg/injection, schedule: Q01DX001 (ip), vehicle: saline).
Consider `CC12CCC(=O)C=C1CC(CC(=O)O)CC2` (stereo unspecified), for which the T/C by setting is: under setting [8], 100 % of control; under setting [9], 108 % of control; under setting [10], 104 % of control.
For the compound `O=C1CC(=Nc2ccccc2)CC(=O)N1`, the T/C (dose: 12.5 mg/kg/injection, schedule: Q01DX009 (ip), vehicle: other) was 102 % of control; the T/C (dose: 25.0 mg/kg/injection, schedule: Q01DX009 (ip), vehicle: other) is 105 % of control; the T/C (dose: 50.0 mg/kg/injection, schedule: Q01DX009 (ip), vehicle: other) was 91 % of control; the T/C (dose: 100.0 mg/kg/injection, schedule: Q01DX009 (ip), vehicle: other) was 89 % of control; the T/C (dose: 200.0 mg/kg/injection, schedule: Q01DX009 (ip), vehicle: other) was 89 % of control.
Regarding `CN(C)c1ccc(/C=N/NC(=O)NN)cc1`, the T/C by setting is: under setting [14], 98 % of control; (dose: 12.5 mg/kg/injection, schedule: Q04DX003 (ip), vehicle: saline with Tween-80) 98 % of control; under setting [15], 100 % of control; (dose: 25.0 mg/kg/injection, schedule: Q04DX003 (ip), vehicle: saline with Tween-80) 98 % of control; under setting [16], 98 % of control; (dose: 50.0 mg/kg/injection, schedule: Q04DX003 (ip), vehicle: saline with Tween-80) 104 % of control.
`C[N+](C)(C)C.N=C=O.N=C=O.N=C=O.N=C=O.[Co+2]`: the T/C (dose: 10.0 mg/kg/injection, schedule: Q01DX009 (ip), vehicle: saline) is 98 % of control.
Regarding `CC(C)(CCC(=O)O)c1ccc(O)cc1`, the T/C under setting [11] is 101 % of control, the T/C under setting [12] is 103 % of control and the T/C under setting [13] was 103 % of control.
As for `O=C(O)CCCCCCCCC(=O)c1ccccc1`, the T/C was 97 % of control under setting [2], 95 % of control under setting [4] and 88 % of control under setting [6].
As for `O=CC=O`, the T/C was 100 % of control and 106 % of control under setting [14]; 103 % of control and 107 % of control under setting [15]; 97 % of control and 106 % of control under setting [16]; 115 % of control and 107 % of control under setting [1]; 106 % of control and 111 % of control under setting [3]; 120 % of control and 108 % of control under setting [5].
In the case of `CCCCN(C)C(=O)Oc1cccc(NC(=O)OC)c1`, the T/C by setting is: under setting [1], 94 % of control; under setting [3], 100 % of control.
With `CC(=O)C(C)C(C)=O`, the T/C reads like this: under setting [1], 105 % of control; under setting [3], 107 % of control; under setting [5], 102 % of control.
For the compound `C[N+]([O-])(C/C=C/c1ccccc1)c1ccccc1` (stereo unspecified), the T/C was 101 % of control (dose: 75.0 mg/kg/injection, schedule: Q01DX001 (ip), vehicle: saline); 97 % of control (dose: 150.0 mg/kg/injection, schedule: Q01DX001 (ip), vehicle: saline); 98 % of control (dose: 300.0 mg/kg/injection, schedule: Q01DX001 (ip), vehicle: saline).
With `CCOc1cccc(Cc2cn(Cc3ccc(NC(=O)c4cccc(S(=O)(=O)F)c4)cc3)c(=O)[nH]c2=O)c1`, the T/C (dose: 75.0 mg/kg/injection, schedule: Q01DX001 (ip), vehicle: saline with Tween-80) was 94 % of control; the T/C (dose: 150.0 mg/kg/injection, schedule: Q01DX001 (ip), vehicle: saline with Tween-80) was 89 % of control; the T/C (dose: 300.0 mg/kg/injection, schedule: Q01DX001 (ip), vehicle: saline with Tween-80) is 94 % of control.
Take `NC1=NCN(C2OC(COC(=O)c3ccccc3)C(OC(=O)c3ccccc3)C2OC(=O)c2ccccc2)C(=O)N1` (stereo unspecified): the T/C (dose: 3.12 mg/kg/injection, schedule: Q01DX009 (ip), vehicle: saline) is 97 % of control and 108 % of control; the T/C under setting [7] was 91 % of control and 102 % of control; the T/C (dose: 12.5 mg/kg/injection, schedule: Q01DX009 (ip), vehicle: saline) was 91 % of control and 100 % of control; the T/C (dose: 25.0 mg/kg/injection, schedule: Q01DX009 (ip), vehicle: saline) is 94 % of control and 97 % of control; the T/C (dose: 50.0 mg/kg/injection, schedule: Q01DX009 (ip), vehicle: saline) is 112 % of control and 100 % of control; the T/C (dose: 100.0 mg/kg/injection, schedule: Q01DX009 (ip), vehicle: saline) is 122 % of control and 108 % of control. In addition, the T/C (dose: 200.0 mg/kg/injection, schedule: Q01DX009 (ip), vehicle: saline) was 165 % of control.
Regarding `Cc1c(N)ccc(O)c1C`, the T/C was 98 % of control under setting [14], 97 % of control under setting [15] and 92 % of control under setting [16].

The values are drawn from PubChem BioAssay AID256 (DTP/NCI, 2004).
